Literature values, collected in patent publication US20220364053A1, “HUMAN CELLULAR MODEL FOR INVESTIGATING CORTICO-STRIATAL-MIDBRAIN NEURAL PATHWAYS” (The Board of Trustees of the Leland Stanford Junior …, priority 2019, published 2022).

Tests used:
[1] = target: element-binding protein (CBP) (Homo sapiens, UniProt Q92793); conditions: read-out: IC50, binds to element-binding protein (CBP)
[2] = system: Wnt-stimulated cellular responses
[3] = system: Wnt processing and secretion; conditions: cell-free assay; read-out: IC50, inhibitor of Wnt processing and secretion
[4] = target: T1, Porcn (Homo sapiens, UniProt Q9H237); conditions: read-out: EC50, Porcn inhibitor
T1 sequence (Q9H237 1-461): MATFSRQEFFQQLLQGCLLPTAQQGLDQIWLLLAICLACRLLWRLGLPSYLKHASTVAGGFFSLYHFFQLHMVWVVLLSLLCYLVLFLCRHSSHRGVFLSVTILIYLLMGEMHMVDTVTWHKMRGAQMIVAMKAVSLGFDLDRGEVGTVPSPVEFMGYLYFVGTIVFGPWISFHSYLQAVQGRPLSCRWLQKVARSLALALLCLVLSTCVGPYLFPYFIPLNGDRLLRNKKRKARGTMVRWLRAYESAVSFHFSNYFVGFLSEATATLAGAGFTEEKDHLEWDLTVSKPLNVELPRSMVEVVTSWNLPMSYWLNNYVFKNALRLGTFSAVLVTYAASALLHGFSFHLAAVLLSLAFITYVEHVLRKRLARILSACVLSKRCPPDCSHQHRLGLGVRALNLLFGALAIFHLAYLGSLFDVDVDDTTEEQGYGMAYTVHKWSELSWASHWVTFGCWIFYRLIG

[5] = system: Wnt signaling; conditions: TM3 cells; read-out: IC50, inhibits Wnt signaling
[6] = target: Smo heptahelical domain (Homo sapiens, UniProt Q99835)
[7] = target: T2, TNKS2 (Homo sapiens, UniProt Q9H2K2)
T2 sequence (Q9H2K2 1-1166): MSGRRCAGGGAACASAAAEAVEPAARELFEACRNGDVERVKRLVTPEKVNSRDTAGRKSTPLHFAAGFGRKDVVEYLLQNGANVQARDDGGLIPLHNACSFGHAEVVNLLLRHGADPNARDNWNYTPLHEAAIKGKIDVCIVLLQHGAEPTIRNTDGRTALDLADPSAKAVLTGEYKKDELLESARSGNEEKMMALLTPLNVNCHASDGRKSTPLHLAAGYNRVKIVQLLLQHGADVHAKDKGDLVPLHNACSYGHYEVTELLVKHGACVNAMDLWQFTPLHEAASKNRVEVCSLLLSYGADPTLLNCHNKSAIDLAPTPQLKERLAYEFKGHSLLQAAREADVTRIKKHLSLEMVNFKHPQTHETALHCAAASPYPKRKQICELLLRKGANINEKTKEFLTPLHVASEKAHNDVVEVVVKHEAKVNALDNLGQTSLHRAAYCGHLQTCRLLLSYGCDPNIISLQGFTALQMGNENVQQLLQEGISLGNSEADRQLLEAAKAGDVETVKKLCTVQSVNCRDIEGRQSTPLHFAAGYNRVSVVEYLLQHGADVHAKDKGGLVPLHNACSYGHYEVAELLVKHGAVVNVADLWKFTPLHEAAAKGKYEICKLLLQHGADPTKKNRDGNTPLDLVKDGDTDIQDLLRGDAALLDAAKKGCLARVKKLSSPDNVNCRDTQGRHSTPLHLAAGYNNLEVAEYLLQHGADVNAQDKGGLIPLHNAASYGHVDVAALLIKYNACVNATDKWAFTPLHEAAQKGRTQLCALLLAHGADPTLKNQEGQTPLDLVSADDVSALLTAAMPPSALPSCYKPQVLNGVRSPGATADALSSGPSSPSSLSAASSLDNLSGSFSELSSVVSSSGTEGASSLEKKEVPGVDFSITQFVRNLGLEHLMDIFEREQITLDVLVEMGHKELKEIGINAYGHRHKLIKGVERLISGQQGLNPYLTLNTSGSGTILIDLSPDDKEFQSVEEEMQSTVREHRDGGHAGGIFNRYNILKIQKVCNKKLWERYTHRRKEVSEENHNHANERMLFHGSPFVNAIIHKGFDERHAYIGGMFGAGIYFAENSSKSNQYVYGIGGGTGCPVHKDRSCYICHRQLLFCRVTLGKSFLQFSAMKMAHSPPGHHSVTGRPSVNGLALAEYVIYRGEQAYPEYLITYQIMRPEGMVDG

[8] = target: Wnt3A-mediated activation of a multimerized TCF-binding site driving luciferase; conditions: HEK293 cells

Smo heptahelical domain, sequence (Q99835 28-787): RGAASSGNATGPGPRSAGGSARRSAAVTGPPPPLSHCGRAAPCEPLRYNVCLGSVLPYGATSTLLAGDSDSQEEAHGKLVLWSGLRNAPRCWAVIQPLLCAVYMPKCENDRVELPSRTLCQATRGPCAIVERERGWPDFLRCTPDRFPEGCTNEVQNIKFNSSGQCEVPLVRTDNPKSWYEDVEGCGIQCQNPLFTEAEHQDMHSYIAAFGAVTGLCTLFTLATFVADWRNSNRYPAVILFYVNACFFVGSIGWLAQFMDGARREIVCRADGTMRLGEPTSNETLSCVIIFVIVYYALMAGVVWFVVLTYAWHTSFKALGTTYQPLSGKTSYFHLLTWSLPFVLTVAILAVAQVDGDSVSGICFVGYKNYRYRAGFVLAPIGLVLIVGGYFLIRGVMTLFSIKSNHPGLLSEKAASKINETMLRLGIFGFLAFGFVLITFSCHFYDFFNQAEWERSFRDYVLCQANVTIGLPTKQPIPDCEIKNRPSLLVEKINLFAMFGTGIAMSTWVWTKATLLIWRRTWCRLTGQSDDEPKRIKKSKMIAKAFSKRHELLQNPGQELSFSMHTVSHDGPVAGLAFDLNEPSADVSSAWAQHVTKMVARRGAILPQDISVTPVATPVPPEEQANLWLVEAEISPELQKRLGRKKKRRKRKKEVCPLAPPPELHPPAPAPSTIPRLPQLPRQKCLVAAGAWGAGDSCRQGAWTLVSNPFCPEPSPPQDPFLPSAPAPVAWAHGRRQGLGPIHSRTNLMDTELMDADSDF
element-binding protein (CBP), sequence (Q92793 whole entry): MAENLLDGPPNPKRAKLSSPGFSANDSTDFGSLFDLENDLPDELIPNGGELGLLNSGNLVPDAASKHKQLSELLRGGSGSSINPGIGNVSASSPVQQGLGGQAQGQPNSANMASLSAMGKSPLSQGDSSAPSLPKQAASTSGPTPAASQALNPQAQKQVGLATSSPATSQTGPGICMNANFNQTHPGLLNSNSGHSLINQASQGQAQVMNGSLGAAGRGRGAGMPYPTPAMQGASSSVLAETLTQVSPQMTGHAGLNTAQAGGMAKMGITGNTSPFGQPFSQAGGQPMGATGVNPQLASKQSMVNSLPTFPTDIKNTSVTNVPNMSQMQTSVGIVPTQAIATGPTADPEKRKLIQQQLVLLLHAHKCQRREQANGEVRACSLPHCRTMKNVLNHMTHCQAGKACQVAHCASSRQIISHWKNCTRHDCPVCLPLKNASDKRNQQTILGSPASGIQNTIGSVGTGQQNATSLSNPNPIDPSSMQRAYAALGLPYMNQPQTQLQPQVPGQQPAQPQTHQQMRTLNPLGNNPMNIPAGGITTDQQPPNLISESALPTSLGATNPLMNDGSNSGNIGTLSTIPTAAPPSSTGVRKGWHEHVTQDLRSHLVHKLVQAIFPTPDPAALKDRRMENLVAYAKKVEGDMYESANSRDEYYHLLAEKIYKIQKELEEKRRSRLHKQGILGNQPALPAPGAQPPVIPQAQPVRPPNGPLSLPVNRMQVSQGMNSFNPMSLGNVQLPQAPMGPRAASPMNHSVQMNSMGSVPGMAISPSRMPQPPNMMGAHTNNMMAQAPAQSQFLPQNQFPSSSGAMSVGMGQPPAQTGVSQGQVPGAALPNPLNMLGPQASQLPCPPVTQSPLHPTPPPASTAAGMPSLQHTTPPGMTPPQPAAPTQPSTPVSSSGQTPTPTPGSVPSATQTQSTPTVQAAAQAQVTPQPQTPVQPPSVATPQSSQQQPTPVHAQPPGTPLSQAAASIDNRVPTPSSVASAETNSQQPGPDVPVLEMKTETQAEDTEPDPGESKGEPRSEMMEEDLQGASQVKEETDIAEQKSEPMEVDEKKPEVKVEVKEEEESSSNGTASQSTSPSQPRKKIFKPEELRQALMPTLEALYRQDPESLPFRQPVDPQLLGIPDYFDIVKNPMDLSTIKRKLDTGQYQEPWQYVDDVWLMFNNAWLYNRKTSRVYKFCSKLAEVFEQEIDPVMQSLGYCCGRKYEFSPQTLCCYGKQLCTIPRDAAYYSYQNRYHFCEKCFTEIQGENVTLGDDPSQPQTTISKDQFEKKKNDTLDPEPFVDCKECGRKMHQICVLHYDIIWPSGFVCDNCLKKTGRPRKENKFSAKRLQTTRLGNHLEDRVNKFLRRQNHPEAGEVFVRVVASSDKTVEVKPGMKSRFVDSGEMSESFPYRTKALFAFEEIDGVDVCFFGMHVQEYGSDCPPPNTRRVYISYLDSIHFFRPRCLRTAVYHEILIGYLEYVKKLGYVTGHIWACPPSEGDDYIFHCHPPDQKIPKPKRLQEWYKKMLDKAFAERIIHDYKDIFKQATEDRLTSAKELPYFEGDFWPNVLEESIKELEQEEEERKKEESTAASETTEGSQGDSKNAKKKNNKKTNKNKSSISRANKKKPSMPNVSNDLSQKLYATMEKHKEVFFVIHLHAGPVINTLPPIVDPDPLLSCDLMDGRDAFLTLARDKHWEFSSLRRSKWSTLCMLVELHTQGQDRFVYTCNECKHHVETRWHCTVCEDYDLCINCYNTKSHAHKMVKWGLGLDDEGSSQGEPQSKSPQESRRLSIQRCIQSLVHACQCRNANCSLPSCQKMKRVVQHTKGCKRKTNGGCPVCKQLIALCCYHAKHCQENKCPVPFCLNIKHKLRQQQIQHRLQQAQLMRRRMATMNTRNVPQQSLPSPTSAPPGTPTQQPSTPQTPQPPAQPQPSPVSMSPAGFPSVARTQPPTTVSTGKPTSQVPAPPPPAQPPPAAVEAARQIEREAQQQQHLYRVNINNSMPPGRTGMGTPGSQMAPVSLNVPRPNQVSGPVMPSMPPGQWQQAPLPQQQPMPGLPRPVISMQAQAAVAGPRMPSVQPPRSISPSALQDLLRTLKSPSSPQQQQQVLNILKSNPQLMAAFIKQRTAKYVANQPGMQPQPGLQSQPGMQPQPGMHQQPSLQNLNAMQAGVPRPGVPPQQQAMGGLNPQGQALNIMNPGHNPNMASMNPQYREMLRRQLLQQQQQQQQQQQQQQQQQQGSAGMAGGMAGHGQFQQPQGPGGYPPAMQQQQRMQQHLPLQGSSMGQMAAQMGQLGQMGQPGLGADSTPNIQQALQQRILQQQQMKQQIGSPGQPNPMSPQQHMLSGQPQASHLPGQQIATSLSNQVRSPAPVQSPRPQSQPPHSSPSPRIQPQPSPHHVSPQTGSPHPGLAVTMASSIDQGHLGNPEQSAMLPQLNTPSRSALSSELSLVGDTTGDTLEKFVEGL

## O=C1[C@H](Cc2ccc(O)cc2)N2C(=O)CCN(C(=O)NCc3ccccc3)[C@H]2CN1Cc1cccc2ccccc12 [ICG-001]
[1]
  IC50: 3000 nM

## Cc1ccc2nc(NC(=O)CSc3nc4c(c(=O)n3-c3ccccc3)SCC4)sc2c1 [IWP-2]
[2]
  effect against Wnt-stimulated cellular responses: no effect
[3]
  IC50: 27 nM

## O=C(CSc1nc2c(c(=O)n1-c1ccccc1)SCC2)Nc1ccc(-c2ccccc2)cn1 [IWP-L6]
[4]
  EC50: 0.5 nM

## Cc1cc(-c2ncc(CC(=O)Nc3ccc(-c4cnccn4)cn3)cc2C)ccn1 [LGK-974]
[5]
  IC50: 0.4 nM

## CNC1CCC(N(Cc2cccc(-c3ccncc3)c2)C(=O)c2sc3ccccc3c2Cl)CC1 (centres unmarked) [SAG]
[6]
  Kd: 59 nM

## COc1ccc(-n2c(SCCCN3C(=O)c4cccc5cccc(c45)C3=O)nnc2-c2ccncc2)cc1 [WIKI4]
[7]
  IC50: 15 nM

## Cc1cc(-c2ccc(CC(=O)Nc3ccc(-c4cccnc4)cc3)cc2)ccn1 [Wnt-C59]
[8]
  IC50: 74000 nM
